Reference: BigSolDB 2.1

O=C(O)COc1ccc(Cl)cc1Cl
solubility (mole fraction)
Details | 278.15 K | 283.15 K | 288.15 K | 293.15 K | 298.15 K | 303.15 K | 308.15 K | 313.15 K | 318.15 K | 323.15 K
in 2-butanone | 0.0937 | 0.103 | 0.112 | 0.123 | 0.134 | 0.144 | 0.156 | 0.169 | 0.184 | 0.201
in MTBE | 0.087 | 0.0961 | 0.106 | 0.116 | 0.126 | 0.137 | 0.148 | 0.161 | 0.175 | 0.19
in acetone | 0.107 | 0.116 | 0.127 | 0.137 | 0.15 | 0.163 | 0.176 | 0.191 | 0.205 | 0.222
in acetonitrile | 0.0178 | 0.0246 | 0.0306 | 0.0401 | 0.0499 | 0.0572 | 0.0672 | 0.078 | 0.0888 | 0.103
in ethanol | 0.0654 | 0.0797 | 0.0975 | 0.117 | 0.141 | 0.167 | 0.192 | 0.223 | 0.255 | 0.292
in ethyl acetate | 0.0548 | 0.0622 | 0.0703 | 0.0798 | 0.0894 | 0.101 | 0.113 | 0.126 | 0.14 | 0.155
in isobutanol | 0.0317 | 0.0402 | 0.0508 | 0.0627 | 0.0778 | 0.0933 | 0.112 | 0.135 | 0.161 | 0.19
in isobutyl acetate | 0.0365 | 0.0427 | 0.0494 | 0.0574 | 0.0657 | – | – | – | – | –
